# Test results: PubChem BioAssay AID330 (DTP/NCI, 2004)
# “And” between values parts separate entries of the source, which are not always exact repeats. Identical values can stand only once. Inconclusive results and toxic doses are left out.
# System: P388 leukemia ip, CD2F1 mice, survival T/C
# Experiment: NCI In Vivo Anticancer Drug Screen. Data for tumor model P388 Leukemia (intraperitoneal) in CD2F1 (CDF1) mice
# Details: endpoint: median survival time, higher = longer survival
# In short: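 Mice carrying the transplanted tumor received test compound or vehicle. Survival was recorded in each group, and the value is the treated-group measurement divided by that of the vehicle-treated control group.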
# [1] = dose: 100.0 mg/kg/injection, schedule: Q01DX009 (ip), vehicle: saline with Tween-80
# [2] = dose: 200.0 mg/kg/injection, schedule: Q01DX009 (ip), vehicle: saline with Tween-80
# [3] = dose: 400.0 mg/kg/injection, schedule: Q01DX009 (ip), vehicle: saline with Tween-80
# [4] = dose: 50.0 mg/kg/injection, schedule: Q01DX009 (ip), vehicle: saline
# [5] = dose: 100.0 mg/kg/injection, schedule: Q01DX009 (ip), vehicle: saline
# [6] = dose: 200.0 mg/kg/injection, schedule: Q01DX009 (ip), vehicle: saline
# [7] = dose: 12.5 mg/kg/injection, schedule: Q01DX009 (ip), vehicle: other
# [8] = dose: 25.0 mg/kg/injection, schedule: Q01DX009 (ip), vehicle: other
# [9] = dose: 25.0 mg/kg/injection, schedule: Q01DX005 (ip), vehicle: Klucel (hydroxypropylcellulose) (HPC)
# [10] = dose: 50.0 mg/kg/injection, schedule: Q01DX005 (ip), vehicle: Klucel (hydroxypropylcellulose) (HPC)
# [11] = dose: 100.0 mg/kg/injection, schedule: Q01DX005 (ip), vehicle: Klucel (hydroxypropylcellulose) (HPC)
# [12] = dose: 50.0 mg/kg/injection, schedule: Q01DX005 (ip), vehicle: saline with Tween-80
# [13] = dose: 100.0 mg/kg/injection, schedule: Q01DX005 (ip), vehicle: saline with Tween-80
# [14] = dose: 200.0 mg/kg/injection, schedule: Q01DX005 (ip), vehicle: saline with Tween-80
compound,measurement,setting,value
CCC(=O)OC(C)COc1ccc(C(C)(C)C)cc1 (stereo unspecified),T/C,[1],107 % of control
same,T/C,[2],114 % of control
same,T/C,[3],117 % of control
O=C1NCCNC1c1ccccc1 (stereo unspecified),T/C,"dose: 25.0 mg/kg/injection, schedule: Q01DX009 (ip), vehicle: saline",102 % of control
same,T/C,[4],102 % of control
same,T/C,[5],98 % of control
same,T/C,[6],100 % of control
COC(=O)C1c2cc3c(c(O)c2C(OC)CC1(C)O)C(=O)c1c(O)cc2c(c1C3=O)OC1OC2(C)C(O)C(N(C)C)C1O (stereo unspecified),T/C,"dose: 3.16 mg/kg/injection, schedule: Q01DX009 (ip), vehicle: other",156 % of control
same,T/C,"dose: 5.0 mg/kg/injection, schedule: Q01DX009 (ip), vehicle: other",161 % of control
same,T/C,"dose: 6.25 mg/kg/injection, schedule: Q01DX009 (ip), vehicle: other",168 % of control
same,T/C,"dose: 10.0 mg/kg/injection, schedule: Q01DX009 (ip), vehicle: other",171 % of control
same,T/C,[7],168 % of control
same,T/C,"dose: 20.0 mg/kg/injection, schedule: Q01DX009 (ip), vehicle: other",171 % of control
same,T/C,[8],198 % of control
same,T/C,"dose: 40.0 mg/kg/injection, schedule: Q01DX009 (ip), vehicle: other",117 % of control
CC(C)Oc1nc(N2CCNCC2)nc2c1CCCC2,T/C,"dose: 15.0 mg/kg/injection, schedule: Q01DX005 (ip), vehicle: saline",101 % of control
same,T/C,"dose: 30.0 mg/kg/injection, schedule: Q01DX005 (ip), vehicle: saline",104 % of control
same,T/C,"dose: 60.0 mg/kg/injection, schedule: Q01DX005 (ip), vehicle: saline",111 % of control and 90 % of control
N#C/C(=C\Nc1ccccn1)C(=O)C1CC1,T/C,"dose: 60.0 mg/kg/injection, schedule: Q01DX005 (ip), vehicle: saline with Tween-80",100 % of control
same,T/C,"dose: 120.0 mg/kg/injection, schedule: Q01DX005 (ip), vehicle: saline with Tween-80",92 % of control
same,T/C,"dose: 240.0 mg/kg/injection, schedule: Q01DX005 (ip), vehicle: saline with Tween-80",91 % of control
Cc1cc(Nc2ccc(C(=O)N/N=C/c3ccc(N(CCCl)CCCl)cc3)cc2)nc2ccc(Cl)cc12,T/C,[4],90 % of control
same,T/C,[5],91 % of control
same,T/C,[6],87 % of control
O=C(O)C(S)C(S)C(=O)O (stereo unspecified),T/C,[7],102 % of control
same,T/C,[8],108 % of control
same,T/C,"dose: 50.0 mg/kg/injection, schedule: Q01DX009 (ip), vehicle: other",103 % of control
same,T/C,"dose: 100.0 mg/kg/injection, schedule: Q01DX009 (ip), vehicle: other",94 % of control
same,T/C,"dose: 200.0 mg/kg/injection, schedule: Q01DX009 (ip), vehicle: other",90 % of control
CC(=O)CC(C)(C)c1ccccc1,T/C,"dose: 25.0 mg/kg/injection, schedule: Q01DX009 (ip), vehicle: saline with Tween-80",106 % of control
same,T/C,"dose: 50.0 mg/kg/injection, schedule: Q01DX009 (ip), vehicle: saline with Tween-80",104 % of control
same,T/C,[1],107 % of control and 108 % of control
same,T/C,[2],103 % of control and 116 % of control
same,T/C,[3],113 % of control and 95 % of control
OCCN(CCO)CC(O)c1cc(-c2ccccc2)nc2ccccc12 (stereo unspecified),T/C,"dose: 12.5 mg/kg/injection, schedule: Q01DX005 (ip), vehicle: Klucel (hydroxypropylcellulose) (HPC)",103 % of control
same,T/C,[9],94 % of control
same,T/C,[10],102 % of control and 103 % of control
same,T/C,[11],110 % of control
CC(C)(C)c1cc(Cc2ccccc2)c(O)c(C(C)(C)C)c1,T/C,"dose: 50.0 mg/kg/injection, schedule: Q01DX005 (ip), vehicle: distilled water + alcohol",100 % of control
same,T/C,"dose: 100.0 mg/kg/injection, schedule: Q01DX005 (ip), vehicle: distilled water + alcohol",103 % of control
same,T/C,"dose: 200.0 mg/kg/injection, schedule: Q01DX005 (ip), vehicle: distilled water + alcohol",111 % of control
Nc1c(S(=O)(=O)O)cc(Br)c2c1C(=O)c1ccccc1C2=O,T/C,[12],98 % of control
same,T/C,[13],98 % of control
same,T/C,[14],93 % of control
C=C1C(O)C2(O)OCC34C(CC5C(C)=CC(=O)C(O)C5(C)C23)OC(=O)C(OC(=O)C/C=C/CCCCCCCC)C14 (stereo unspecified),T/C,"dose: 2.0 mg/kg/injection, schedule: Q01DX005 (ip), vehicle: saline + alcohol",151 % of control
same,T/C,"dose: 4.0 mg/kg/injection, schedule: Q01DX005 (ip), vehicle: saline + alcohol",151 % of control and 156 % of control
same,T/C,"dose: 8.0 mg/kg/injection, schedule: Q01DX005 (ip), vehicle: saline + alcohol",198 % of control
same,T/C,"dose: 16.0 mg/kg/injection, schedule: Q01DX005 (ip), vehicle: saline + alcohol",205 % of control
CC(=O)OC1C(O)C(C)OC(OC2C(OC(=O)C3CCC4C(C3)OC3(CC(OC(=O)/C=C/c5ccccc5)C(C)CO3)C43CO3)OC(C)C(O)C2OC(C)=O)C1O (stereo unspecified),T/C,"dose: 0.25 mg/kg/injection, schedule: Q01DX009 (ip), vehicle: saline",91 % of control
same,T/C,"dose: 0.5 mg/kg/injection, schedule: Q01DX009 (ip), vehicle: saline",100 % of control
same,T/C,"dose: 1.0 mg/kg/injection, schedule: Q01DX009 (ip), vehicle: saline + alcohol",113 % of control
same,T/C,"dose: 1.0 mg/kg/injection, schedule: Q01DX009 (ip), vehicle: saline",110 % of control
same,T/C,"dose: 2.0 mg/kg/injection, schedule: Q01DX009 (ip), vehicle: saline + alcohol",119 % of control
same,T/C,"dose: 2.0 mg/kg/injection, schedule: Q01DX009 (ip), vehicle: saline",117 % of control
same,T/C,"dose: 4.0 mg/kg/injection, schedule: Q01DX009 (ip), vehicle: saline + alcohol",124 % of control
O=NN(CCCl)C(=O)OCC(Cl)(Cl)Cl,T/C,"dose: 3.12 mg/kg/injection, schedule: Q01DX001 (ip), vehicle: saline with Tween-80",104 % of control
same,T/C,"dose: 6.25 mg/kg/injection, schedule: Q01DX001 (ip), vehicle: saline with Tween-80",101 % of control
same,T/C,"dose: 12.5 mg/kg/injection, schedule: Q01DX001 (ip), vehicle: saline with Tween-80",113 % of control
same,T/C,"dose: 25.0 mg/kg/injection, schedule: Q01DX001 (ip), vehicle: saline with Tween-80",113 % of control and 117 % of control and 119 % of control
same,T/C,"dose: 50.0 mg/kg/injection, schedule: Q01DX001 (ip), vehicle: saline with Tween-80",105 % of control and 120 % of control and 123 % of control
same,T/C,"dose: 100.0 mg/kg/injection, schedule: Q01DX001 (ip), vehicle: saline with Tween-80",88 % of control
Oc1c(CN2CCCC2)cc(Nc2cc(/C=C/c3ccc(Cl)cc3)nc(/C=C\c3ccc(Cl)cc3)n2)cc1CN1CCCC1,T/C,"dose: 0.62 mg/kg/injection, schedule: Q01DX009 (ip), vehicle: saline with Tween-80",103 % of control
same,T/C,"dose: 1.25 mg/kg/injection, schedule: Q01DX009 (ip), vehicle: saline with Tween-80",112 % of control
same,T/C,"dose: 2.5 mg/kg/injection, schedule: Q01DX009 (ip), vehicle: saline with Tween-80",105 % of control
same,T/C,"dose: 5.0 mg/kg/injection, schedule: Q01DX009 (ip), vehicle: saline with Tween-80",106 % of control
same,T/C,"dose: 10.0 mg/kg/injection, schedule: Q01DX009 (ip), vehicle: saline with Tween-80",92 % of control
Cn1c(N(CCN2CCOCC2)C(=O)/C=C\c2ccccc2)cc(=O)n(C)c1=O,T/C,[12],105 % of control
same,T/C,"dose: 50.0 mg/kg/injection, schedule: Q01DX005 (ip), vehicle: water",103 % of control
same,T/C,[13],100 % of control
same,T/C,"dose: 100.0 mg/kg/injection, schedule: Q01DX005 (ip), vehicle: water",112 % of control
same,T/C,[14],97 % of control
same,T/C,"dose: 200.0 mg/kg/injection, schedule: Q01DX005 (ip), vehicle: water",109 % of control
COC(=O)C1C(O)CCC2CN3CCc4c([nH]c5cccc(OC)c45)C3CC21 (stereo unspecified),T/C,[9],104 % of control
same,T/C,[10],105 % of control
same,T/C,[11],104 % of control
same,T/C,"dose: 200.0 mg/kg/injection, schedule: Q01DX005 (ip), vehicle: Klucel (hydroxypropylcellulose) (HPC)",101 % of control
COc1ccc(C2c3cc4c(cc3OC3(N5CCCC5)CCCCC23)OCO4)cc1 (stereo unspecified),T/C,"dose: 60.0 mg/kg/injection, schedule: Q01DX005 (ip), vehicle: Klucel (hydroxypropylcellulose) (HPC)",99 % of control
same,T/C,"dose: 120.0 mg/kg/injection, schedule: Q01DX005 (ip), vehicle: Klucel (hydroxypropylcellulose) (HPC)",94 % of control
same,T/C,"dose: 240.0 mg/kg/injection, schedule: Q01DX005 (ip), vehicle: Klucel (hydroxypropylcellulose) (HPC)",88 % of control
Cc1c(O)c2c(c(O)c1Cc1cccc(CN)c1)C(=O)c1ccccc1C2=O,T/C,"dose: 1.56 mg/kg/injection, schedule: Q01DX009 (ip), vehicle: water",91 % of control
same,T/C,"dose: 25.0 mg/kg/injection, schedule: Q01DX009 (ip), vehicle: water",89 % of control
